How the values were obtained:
PTK2 = biological target: T1, PTK2 (Homo sapiens, UniProt Q05397); assay: PTK2 Enzyme Test (DELFIA assay, poly-Glu-Tyr substrate); assay type: biochemical; conditions: active PTK2 enzyme, 50 μM ATP in ATP Mix, 1 h pre-incubation
T1 construct: purchased Invitrogen PV3832
Procedure, shortened: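 Active PTK2 (0.01 μg/well) pre-incubated 1 h at RT with compound, then reacted 1 h with 50 μM ATP (in ATP mix) and poly(Glu,Tyr) 4:1 substrate, 2% DMSO final, pH 7.5. Biotinylated product captured on streptavidin, detected by Eu-PY20 time-resolved fluorescence; IC50 by sigmoidal fit, variable Hill slope.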

[1] = biological target: T2, PTK2-phosphorylation at tyrosine 397 (pY397) (Homo sapiens, UniProt Q05397); assay: Phospho-PTK2 (pY397) Assay in PC-3 cells; assay type: cell-based; conditions: PC-3 prostate carcinoma cells, 2 h incubation; read-out: PC3pPTK2 Y397 EC50
T2 construct: endogenous in cells; host or cells: PC-3 (ATCC CRL-1435)
Procedure, shortened: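 PC-3 cells (2×10^4/well, F12K + 10% FCS) exposed to compound (about 0.8 nM–50 μM, 1% DMSO final) for 2 h at 37 °C. Then formaldehyde-fixed and immunostained with anti-pY397 PTK2 (total PTK2 control) and an HRP secondary. EC50 from sigmoidal fit with variable Hill slope.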

T2 sequence (Q05397 whole entry): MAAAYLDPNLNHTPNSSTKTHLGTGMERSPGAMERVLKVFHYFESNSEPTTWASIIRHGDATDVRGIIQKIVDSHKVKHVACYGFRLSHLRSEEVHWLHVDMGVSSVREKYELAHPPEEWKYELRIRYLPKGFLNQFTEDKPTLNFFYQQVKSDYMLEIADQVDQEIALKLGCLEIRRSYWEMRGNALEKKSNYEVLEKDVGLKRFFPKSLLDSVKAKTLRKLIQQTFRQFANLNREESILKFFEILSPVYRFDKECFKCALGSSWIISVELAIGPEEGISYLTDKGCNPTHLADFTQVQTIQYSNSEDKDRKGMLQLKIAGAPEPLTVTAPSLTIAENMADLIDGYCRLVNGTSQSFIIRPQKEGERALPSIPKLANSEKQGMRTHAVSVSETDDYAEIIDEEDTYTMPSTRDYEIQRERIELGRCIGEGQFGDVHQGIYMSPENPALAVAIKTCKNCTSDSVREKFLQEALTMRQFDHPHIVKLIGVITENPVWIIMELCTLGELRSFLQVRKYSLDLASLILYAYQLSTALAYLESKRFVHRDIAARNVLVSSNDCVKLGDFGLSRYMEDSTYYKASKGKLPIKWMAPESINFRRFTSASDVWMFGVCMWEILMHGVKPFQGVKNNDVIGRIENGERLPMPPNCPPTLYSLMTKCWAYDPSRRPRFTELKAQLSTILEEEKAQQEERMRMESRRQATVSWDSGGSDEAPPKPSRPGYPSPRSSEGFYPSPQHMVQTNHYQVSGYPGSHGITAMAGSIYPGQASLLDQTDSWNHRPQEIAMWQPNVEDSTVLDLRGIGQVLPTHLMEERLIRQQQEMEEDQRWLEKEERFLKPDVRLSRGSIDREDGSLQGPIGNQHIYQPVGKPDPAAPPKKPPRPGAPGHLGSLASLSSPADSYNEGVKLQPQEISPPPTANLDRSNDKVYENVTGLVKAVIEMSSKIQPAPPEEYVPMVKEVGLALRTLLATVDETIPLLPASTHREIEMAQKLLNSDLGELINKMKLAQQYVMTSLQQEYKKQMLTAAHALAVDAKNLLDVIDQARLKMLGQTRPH
T1 sequence (Q05397 whole entry): as above

IC50 (PTK2)	EC50 [1]	Structure (SMILES)
2 nM	0.72 nM	COc1cc(NC(C)=O)c(C)cc1Nc1ncc(C(F)(F)F)c(NCc2ccc(C)cc2N(C)S(C)(=O)=O)n1 [Example 68]
2 nM	2 nM	CCc1cc(C(=O)NC2CCN(CC)CC2)ccc1Nc1ncc(C(F)(F)F)c(NCc2ccc(C)cc2N(C)S(C)(=O)=O)n1 [Example 101]
4 nM	2 nM	COc1cc(C(=O)NC2CCC(N3CCN(CC4CC4)CC3)CC2)c(C)cc1Nc1ncc(C(F)(F)F)c(NCc2ccc(C)cc2N(C)S(C)(=O)=O)n1 (stereo not shown) [Example 107]
3 nM	2 nM	COc1cc(C(=O)NC2CC(N3CCN(CC4CC4)CC3)C2)ccc1Nc1ncc(C(F)(F)F)c(NCc2ccc(C)cc2N(C)S(C)(=O)=O)n1 (stereo not shown) [Example 97]
1 nM	0.77 nM	COc1cc(C(=O)NC2CCN(C)CC2)ccc1Nc1ncc(C(F)(F)F)c(NCc2ccc(C)cc2N(C)S(C)(=O)=O)n1 [Example 73, 4-{4-[2-(methanesulphonyl-methyl-amino)-4-methyl-benzylamino]-5-trifluoromethyl-pyrimidin-2-ylamino}-3-methoxy-N-(1-methyl-piperidin-4-yl)-benzamide]
1 nM	0.23 nM	COc1cc(C(=O)N[C@H]2CCN(C)C2)c(F)cc1Nc1ncc(C(F)(F)F)c(NCc2ccc(C)cc2N(C)S(C)(=O)=O)n1 [Example 23]
3 nM	0.14 nM	COc1cc(C(=O)NC2CCCN(C)C2)ccc1Nc1ncc(C(F)(F)F)c(NCc2ccc(C)cc2N(C)S(C)(=O)=O)n1 (stereo not shown) [Example 7]
3 nM	0.25 nM	COc1cc(C(=O)NC2CCC3C(CCN3C)C2)ccc1Nc1ncc(C(F)(F)F)c(NCc2ccc(C)cc2N(C)S(C)(=O)=O)n1 (stereo not shown) [Example 26]
6 nM	3 nM	COC(=O)Nc1cc(OC)c(Nc2ncc(C(F)(F)F)c(NCc3ccc(F)cc3N(C)S(C)(=O)=O)n2)cc1C [Example 126]
1 nM	0.24 nM	CNCc1ccc(Nc2ncc(C(F)(F)F)c(NCc3ccc(C)cc3N(C)S(C)(=O)=O)n2)c(OC)c1 [Example 25]
4 nM	2 nM	COc1cc(C(=O)N[C@@H]2CCN(C)C[C@@H]2F)ccc1Nc1ncc(C(F)(F)F)c(NCc2ccc(C)cc2N(C)S(C)(=O)=O)n1 [Example 106]
1 nM	0.84 nM	COc1cc(N2CCN(C(C)C)CC2)ccc1Nc1ncc(C(F)(F)F)c(NCc2ccc(F)cc2N(C)S(C)(=O)=O)n1 [Example 75]
6 nM	0.14 nM	COc1cc(C(=O)NC2CCN(C(C)=O)CC2)ccc1Nc1ncc(C(F)(F)F)c(NCc2ccc(C)cc2N(C)S(C)(=O)=O)n1 [Example 9]
2 nM	2 nM	COc1cc(C(=O)NC2CCN(C3CCOCC3)CC2)ccc1Nc1ncc(C(F)(F)F)c(NCc2ccc(Cl)cc2N(C)S(C)(=O)=O)n1 [Example 94]
2 nM	0.19 nM	CCN1CCC[C@@H](NC(=O)c2ccc(Nc3ncc(C(F)(F)F)c(NCc4ccc(C)cc4N(C)S(C)(=O)=O)n3)c(OC)c2)C1 [Example 17]
3 nM	0.18 nM	COc1cc(C(=O)NC2CCN(C(C)C)CC2)ccc1Nc1ncc(C(F)(F)F)c(NCc2ccc(C)cc2N(C)S(C)(=O)=O)n1 [Example 15]
1 nM	3 nM	COc1ccc(CNc2nc(Nc3ccc(NC(C)=O)c(C)c3)ncc2C(F)(F)F)c(N(C)S(C)(=O)=O)c1 [Example 118]
2 nM	0.14 nM	CCN1CCC(NC(=O)c2ccc(Nc3ncc(C(F)(F)F)c(NCc4ccc(C)cc4N(C)S(C)(=O)=O)n3)c(OC)c2)CC1 [Example 8]
3 nM	0.59 nM	COc1cc(CNC2CCN(C)CC2)ccc1Nc1ncc(C(F)(F)F)c(NCc2ccc(C)cc2N(C)S(C)(=O)=O)n1 [Example 59]

Structure (SMILES)	IC50 (PTK2)	EC50 [1]
COc1cc(C(=O)N[C@@H]2CN3CCC2CC3)ccc1Nc1ncc(C(F)(F)F)c(NCc2ccc(C)cc2N(C)S(C)(=O)=O)n1 [Example 74]	3 nM	0.8 nM
